Some test systems named below: BT-549 breast; CCRF-CEM leukemia; IGROV1 ovarian; MOLT-4 leukemia; NCI/ADR-RES ovarian; SNB-19 CNS; MDA-MB-435.
Holding throughout (experiment): NCI-60 cell line screen, 48 h

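A five-concentration, 48-hour dose response in 96-well plates underlies each endpoint, interpolated linearly between surrounding concentrations. At the GI50, growth is halved. TGI is the concentration that stops growth completely.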

For the compound `COc1cccc2c1-c1c(c3ccc([N+](=O)[O-])cc3c(=O)n1CCCN)C2=O`, the GI50 with BT-549 breast was 1.72 µM; in the experiment with CCRF-CEM leukemia, 0.183 µM; in the experiment with IGROV1 ovarian it was 0.289 µM; with MOLT-4 leukemia, 0.0293 µM; with NCI/ADR-RES ovarian it was 3.99 µM; with SNB-19 CNS it was 1.35 µM. Besides, the TGI in the experiment with BT-549 breast was 3.61 µM; in the experiment on CCRF-CEM leukemia, 4.76 µM; in the experiment with IGROV1 ovarian, 1.99 µM; in the experiment on MOLT-4 leukemia, 0.34 µM; in the experiment with NCI/ADR-RES ovarian, 19.1 µM; in the experiment with SNB-19 CNS it was 2.93 µM.

Consider `Cc1cc(Nc2nc(-c3cccnc3)nc3ccccc23)n[nH]1`, for which the GI50 in the experiment with BT-549 breast was 4.24 µM; in the experiment on CCRF-CEM leukemia, 4.83 µM; with IGROV1 ovarian, 1.2 µM; in the experiment with MDA-MB-435 it was 0.647 µM; with MOLT-4 leukemia, greater than 57.2 µM; in the experiment on NCI/ADR-RES ovarian it was 5.13 µM. Also, the GI50 with SNB-19 CNS is 5.98 µM. Further, the TGI with BT-549 breast was greater than 100 µM; with CCRF-CEM leukemia it was greater than 100 µM; in the experiment on IGROV1 ovarian, greater than 40.6 µM; in the experiment on MDA-MB-435, greater than 100 µM; in the experiment with MOLT-4 leukemia, greater than 100 µM; in the experiment with NCI/ADR-RES ovarian, greater than 92.7 µM. Also, the TGI in the experiment with SNB-19 CNS was greater than 100 µM.

As for `CCC(c1ccc(OC)cc1)C(CC)c1ccc(O)c(CN2CCN(C)CC2)c1` (stereo not given), the GI50 is 13.2 µM in the experiment on BT-549 breast; 5.37 µM with CCRF-CEM leukemia; 5.4 µM in the experiment on IGROV1 ovarian; 2.72 µM with MDA-MB-435; 6.01 µM in the experiment on MOLT-4 leukemia; 5.51 µM in the experiment with NCI/ADR-RES ovarian. In the experiment with SNB-19 CNS, the GI50 is 4.88 µM. The TGI in the experiment with BT-549 breast was 26.8 µM; with CCRF-CEM leukemia, 20.4 µM; in the experiment with IGROV1 ovarian it was 18 µM; in the experiment on MDA-MB-435, 9.4 µM; in the experiment with MOLT-4 leukemia it was 20.4 µM; in the experiment on NCI/ADR-RES ovarian, 20.6 µM. This compound had a TGI in the experiment with SNB-19 CNS of 18.5 µM.

`O=C(O)C1CC2(C1)CC(C(=O)O)C2` (stereo not given): the TGI in the experiment with BT-549 breast, in the experiment on IGROV1 ovarian, in the experiment with MDA-MB-435, in the experiment on MOLT-4 leukemia, in the experiment with NCI/ADR-RES ovarian and with SNB-19 CNS was greater than 100 µM each time.

Consider `COc1cc2c(cc1OC)C(Sc1ccc(SC)cc1)c1c(nc(N)c(C#N)c1N)O2` (stereo not given), for which the GI50 is 1.38 µM in the experiment with BT-549 breast; 0.571 µM with CCRF-CEM leukemia; 1.23 µM with IGROV1 ovarian; 1.75 µM in the experiment with MDA-MB-435; 1.07 µM with MOLT-4 leukemia; 1.45 µM in the experiment with SNB-19 CNS. The TGI is 2.67 µM with BT-549 breast; 4.28 µM in the experiment with CCRF-CEM leukemia; 3.24 µM in the experiment with IGROV1 ovarian; 3.23 µM with MDA-MB-435; 4.08 µM with MOLT-4 leukemia; 2.8 µM in the experiment with SNB-19 CNS.

In the case of `CC(=O)c1c(CN(C)c2ccccc2)n([O-])c2ccccc2[n+]1=O`, the GI50 in the experiment with BT-549 breast was 25.1 µM; in the experiment with CCRF-CEM leukemia, 23 µM; with IGROV1 ovarian it was 45.4 µM; in the experiment on MOLT-4 leukemia it was 23.9 µM; with NCI/ADR-RES ovarian, 19.5 µM; in the experiment with SNB-19 CNS, 17.5 µM. For the same compound, the TGI with BT-549 breast was 86.6 µM; with CCRF-CEM leukemia, 96.7 µM; in the experiment with IGROV1 ovarian it was greater than 100 µM; in the experiment with MOLT-4 leukemia, greater than 100 µM; in the experiment on NCI/ADR-RES ovarian, 55.9 µM; with SNB-19 CNS, 57.1 µM.

Consider `COC(=O)C(=CNC(N)=O)C(=O)OC`, for which the TGI in the experiment on CCRF-CEM leukemia, in the experiment on IGROV1 ovarian, in the experiment with MDA-MB-435, with MOLT-4 leukemia, in the experiment on NCI/ADR-RES ovarian and in the experiment on SNB-19 CNS was greater than 100 µM each time.

With `COc1ccc2c(c1)CC[C@@H]1[C@@H]2CC[C@]2(C)[C@@H](NC(=O)/C=C/c3ccc(O)c(O)c3)CC[C@@H]12`, the GI50 in the experiment on BT-549 breast is 5.56 µM; in the experiment with CCRF-CEM leukemia, 0.731 µM; in the experiment with IGROV1 ovarian, 1.98 µM; in the experiment with MDA-MB-435, 3.43 µM; in the experiment with NCI/ADR-RES ovarian, 2 µM; with SNB-19 CNS it was 15.7 µM. The TGI in the experiment with BT-549 breast amounted to 20.3 µM; with CCRF-CEM leukemia, 6.67 µM; in the experiment on IGROV1 ovarian, 12 µM; in the experiment with MDA-MB-435, 11.1 µM; in the experiment with NCI/ADR-RES ovarian, 6.05 µM; with SNB-19 CNS, 48.6 µM.

Turning to `CC(=O)N1N=C(c2ccc(Nc3ccnc4cc(Cl)ccc34)cc2)CC1c1ccc(Cl)cc1` (stereo not given), the GI50 in the experiment with BT-549 breast was 5.4 µM; in the experiment with IGROV1 ovarian, greater than 100 µM; with MDA-MB-435 it was 0.566 µM; in the experiment with MOLT-4 leukemia, 2.42 µM; with NCI/ADR-RES ovarian it was 3.04 µM; with SNB-19 CNS, greater than 100 µM. For the same compound, the TGI with BT-549 breast, in the experiment with IGROV1 ovarian, in the experiment with MDA-MB-435, with MOLT-4 leukemia, in the experiment with NCI/ADR-RES ovarian and in the experiment with SNB-19 CNS was greater than 100 µM throughout.

As to `CCOC(=O)c1c(C)n(Cc2ccccc2)c2c1cc(O)c1[nH]c(Cc3ccccc3)nc12`, the GI50 in the experiment on BT-549 breast is 2.39 µM; in the experiment on CCRF-CEM leukemia, greater than 21.4 µM; with IGROV1 ovarian, 15.8 µM; in the experiment with MDA-MB-435, greater than 42.8 µM; in the experiment on NCI/ADR-RES ovarian, 18.9 µM; in the experiment with SNB-19 CNS it was 23.6 µM. For the same compound, the TGI is 28.8 µM with BT-549 breast; greater than 100 µM in the experiment on CCRF-CEM leukemia; greater than 57.7 µM with IGROV1 ovarian; greater than 100 µM with MDA-MB-435; greater than 57.9 µM with NCI/ADR-RES ovarian; greater than 67.9 µM in the experiment with SNB-19 CNS.

As to `Clc1ccc(-c2csc(Nc3cccc(-c4csc(-c5ccccc5)n4)c3)n2)cc1`, the GI50 was 15.8 µM with BT-549 breast; 13.5 µM in the experiment on IGROV1 ovarian; 9.05 µM with MDA-MB-435; 19.5 µM in the experiment with MOLT-4 leukemia; 13 µM in the experiment on NCI/ADR-RES ovarian; 13 µM in the experiment on SNB-19 CNS. The TGI in the experiment on BT-549 breast is 31.4 µM; in the experiment on IGROV1 ovarian, 39 µM; with MDA-MB-435, 21.6 µM; with MOLT-4 leukemia, greater than 50 µM; in the experiment with NCI/ADR-RES ovarian, 24.2 µM; in the experiment with SNB-19 CNS, 27.3 µM.

Turning to `Oc1ccc(O)c(-c2cc(-c3ccc(Cl)cc3)nn2-c2ccccc2)c1`, the GI50 in the experiment with BT-549 breast is 21 µM; with CCRF-CEM leukemia it was 3.06 µM; in the experiment on IGROV1 ovarian, 9.95 µM; in the experiment with MDA-MB-435, 14.9 µM; in the experiment with MOLT-4 leukemia, 3.3 µM. Also, the TGI is 52.3 µM in the experiment on BT-549 breast; greater than 100 µM in the experiment with CCRF-CEM leukemia; greater than 100 µM in the experiment with IGROV1 ovarian; 32.1 µM in the experiment on MDA-MB-435; greater than 100 µM with MOLT-4 leukemia; 25.3 µM in the experiment with NCI/ADR-RES ovarian.

The record behind these values is PubChem BioAssay (NCI).
